Measurements reported in patent publication US5296591A, “Trifluoromethylketone derivatives, processes for preparation thereof and use thereof” (Fujisawa Pharmaceutical Co., Ltd., priority 1990, dated 1994).
Like-named read-outs stand apart in the source and are kept apart here.

Experiments:
[1] = tested on: human sputum elastase-induced lung hemorrhage in hamsters; test: Elastase-induced pulmonary damage (lung hemorrhage) in hamsters; assay type: in vivo, hamster; settings: 5 min predose; for Hemorrhage (OD541 nm): BAL hemoglobin 3 h after elastase; for ED50 elastase-induced lung hemorrhage: intratracheal
Procedure: Hamsters under pentobarbital anesthesia were used. Saline or saline-containing human sputum elastase was instilled intratracheally via a small incision in the ventral neck region using 1-ml syringe with a 27-gauge needle. After 3 hours, animals were sacrificed by CO2 asphyxiation, each animal's trachea was reexposed. The lungs were then laveged using a 2.5-ml aliquot of saline and then withdrawing the saline, yielding a final volume of approximately 1.5 ml bronchoalveolar lavage (BAC) fluid from each animal.
The cells of BAL fluid were collected by centrifugation and were then diluted with distilled water to disrupt, and the hemoglobin contents determined spectrophotometrically at 541 nm.
Test drugs were dissolved in saline or methyl cellulose, and instilled intratracheally in the same manner as used to instill elastase, at 5 minutes before instillation of elastase.

[2] = target: T1, human sputum elastase (HSE) (Homo sapiens, UniProt P08246); test: Protease inhibition assay (in vitro), human sputum elastase; assay type: biochemical; settings: substrate methoxysuccinyl-(Ala)2-Pro-Val-p-nitroanilide, 30 min, room temperature, pH 7.5
T1 construct: HSE was obtained from Elastin Products Company Inc., Mo., U.S.A; purchased Elastin Products Company Inc; host or cells: human sputum (from the enzyme's name)
T1 sequence (P08246 30-267): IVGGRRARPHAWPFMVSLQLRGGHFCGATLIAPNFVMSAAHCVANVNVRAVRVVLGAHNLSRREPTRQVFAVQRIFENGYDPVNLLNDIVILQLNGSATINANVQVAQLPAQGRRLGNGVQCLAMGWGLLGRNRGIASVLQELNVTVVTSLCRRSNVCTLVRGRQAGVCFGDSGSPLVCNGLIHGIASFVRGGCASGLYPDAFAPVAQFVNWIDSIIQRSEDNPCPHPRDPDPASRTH
Procedure: (§1) A buffer used throughout the assay was 0.1M HEPES (4-(2-hydroxyethyl)-1-piperazineethanesulfonic acid) containing 0.5M NaCl, pH 7.5. Twenty-five microliters of 2 mM methoxysuccinyl-(Ala)2 -Pro-Val-p-nitroanilide (100 mM of dimethyl sulfoxide solution were diluted in the buffer) and 50 μl of sample (10 μl of sample in organic solvent was diluted 5-fold in the buffer) were mixed in wells of 96 well-microliter plate. An absorbance of the mixture in wavelength at 415 nm was measured by a microplate reader (Corona Electric Co., Ibaraki, Japan). After the measurement, 25 μl of 6 μg/ml human sputum elastase (HSE) was added and the mixture was allowed to stand for 30 minutes at room temperature. Then, the absorbance at 415 nm was measured. Percent inhibition by drug was determined by 100×(1-"r" inhibitor present/"r" inhibitor absent), where "r" is absorbance after 30 minutes incubation minus absorbance before enzyme addition. Effect of inhibitors against porcine pancreas elastase (Type IV, 5 μg/ml final) was assayed similarly using N-succinyl-(Ala)3 -p-nitroanilide. HSE was obtained from Elastin Products Company Inc., Mo., U.S.A. All other substrates and protease were purchased from Sigma Chemicals Co.

[3] = target: T2, porcine pancreas elastase (Type IV) (Sus scrofa, UniProt P00772); test: Protease inhibition assay (in vitro), porcine pancreas elastase; assay type: biochemical; settings: substrate N-succinyl-(Ala)3-p-nitroanilide, enzyme 5 μg/ml final
T2 construct: purchased Sigma Chemicals Co; host or cells: porcine pancreas (from the enzyme's name)
T2 sequence (P00772 27-266): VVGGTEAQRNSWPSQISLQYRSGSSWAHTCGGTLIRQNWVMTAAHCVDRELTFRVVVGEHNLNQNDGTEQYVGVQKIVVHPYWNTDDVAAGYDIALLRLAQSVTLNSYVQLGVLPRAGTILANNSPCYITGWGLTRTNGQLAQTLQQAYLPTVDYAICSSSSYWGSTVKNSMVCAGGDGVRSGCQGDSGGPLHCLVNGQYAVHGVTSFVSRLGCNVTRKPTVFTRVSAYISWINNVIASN
Procedure: as §1

[4] = read-out: IC50 Porcine pancreas elastase

Compound | IC50 [2] | IC50 [3, 4] | also measured
3(RS)-[[4-(Carboxymethylaminocarbonyl)phenylaminocarbonyl]-L-valyl-L-prolyl] amino-1,1,1-trifluoro-2-oxo-4-methylpentane [Example 23] | 0.81 µM | 2.4 µM | % inhibition of elastase-induced lung hemorrhage ([1]; 1 μg/site intratracheal): 16.0%; Hemorrhage (OD541 nm) ([1]; 1 μg/site intratracheal): 9.435 ± 0.941 OD541 nm; % inhibition of elastase-induced lung hemorrhage ([1]; 10 μg/site intratracheal): 75.6%; Hemorrhage (OD541 nm) ([1]; 10 μg/site intratracheal): 3.412 ± 1.31 OD541 nm; % inhibition of elastase-induced lung hemorrhage ([1]; 100 μg/site intratracheal): 102.1%; Hemorrhage (OD541 nm) ([1]; 100 μg/site intratracheal): 0.7258 ± 0.303 OD541 nm; ED50 elastase-induced lung hemorrhage [1]: 3.2 μg/site
CC(C)C(NC(=O)[C@@H]1CCCN1C(=O)[C@@H](NC(=O)c1ccc(C(=O)NCC(=O)OCc2ccccc2)cc1)C(C)C)C(=O)C(F)(F)F (mixture of isomers) [Example 1, 3(RS)-[[4-[(benzyloxycarbonyl)methylaminocarbonyl]-phenylcarbonyl]-L-valyl-L-prolyl]amino-1,1,1-trifluoro-4-methyl-2-oxopentane] | 0.45 µM | 4.4 µM | 
CC(C)C(NC(=O)[C@@H]1CCCN1C(=O)[C@@H](NC(=O)c1ccc(C(=O)NCc2ccc(Cl)cc2)cc1)C(C)C)C(=O)C(F)(F)F (mixture of isomers) [Example 5, 3(RS)-[[4-[(4-Chlorobenzyl)aminocarbonyl]-phenylcarbonyl]-L-valyl-L-prolyl]amino-1,1,1-trifluoro-4-methyl-2-oxopentane] | 0.3 µM | 5.1 µM | 
CC(C)C(NC(=O)[C@@H]1CCCN1C(=O)[C@@H](NC(=O)c1ccc(C(=O)NCc2ccc([N+](=O)[O-])cc2)cc1)C(C)C)C(=O)C(F)(F)F (mixture of isomers) [Example 6, 3(RS)-[[4-[(4-Nitrobenzyl)aminocarbonyl]phenylcarbonyl]-L-valyl-L-prolyl]amino-1,1,1-trifluoro-4-methyl-2-oxopentane] | 0.43 µM | 6.9 µM | 
CC(C)C(NC(=O)[C@@H]1CCCN1C(=O)[C@@H](NC(=O)c1ccc(C(=O)Nc2ccc(Cl)cc2)cc1)C(C)C)C(=O)C(F)(F)F (mixture of isomers) [Example 7, 3(RS)-[[4-[(4-Chlorophenyl)aminocarbonyl]phenylcarbonyl]-L-valyl-L-prolyl]amino-1,1,1-trifluoro-4-methyl-2-oxopentane] | 0.32 µM | 3.8 µM | 
CC(C)C(NC(=O)[C@@H]1CCCN1C(=O)[C@@H](NC(=O)c1ccc(C(=O)N[C@@H](CCC(=O)OCc2ccccc2)C(=O)OCc2ccccc2)cc1)C(C)C)C(=O)C(F)(F)F (mixture of isomers) [Example 10, 3(RS)-[[4-[[1(S),3-bis(Benzyloxycarbonyl)propyl]aminocarbonyl]phenylcarbonyl]-L-valyl-L-prolyl]amino-1,1,1-trifluoro-4-methyl-2-oxopentane] | 8 µM | 310 µM | 
CC(C)C(NC(=O)[C@@H]1CCCN1C(=O)[C@@H](NC(=O)c1ccc(C(=O)NCC(=O)O)cc1)C(C)C)C(=O)C(F)(F)F (mixture of isomers) [Example 13, 3(RS)-[[4-(carboxymethylaminocarbonyl)phenylcarbonyl]-L-valyl-L-prolyl]amino-1,1,1-trifluoro-4-methyl-2-oxopentane] | 0.72 µM |  | % inhibition of elastase-induced lung hemorrhage ([1]; 1 μg/site intratracheal): 21.6%; Hemorrhage (OD541 nm) ([1]; 1 μg/site intratracheal): 11.63 ± 1.99 OD541 nm; % inhibition of elastase-induced lung hemorrhage ([1]; 10 μg/site intratracheal): 74.5%; Hemorrhage (OD541 nm) ([1]; 10 μg/site intratracheal): 4.217 ± 1.02 OD541 nm; % inhibition of elastase-induced lung hemorrhage ([1]; 100 μg/site intratracheal): 100.0%; Hemorrhage (OD541 nm) ([1]; 100 μg/site intratracheal): 0.6384 ± 0.222 OD541 nm; ED50 elastase-induced lung hemorrhage [1]: 3.0 μg/site; IC50 ([3]; IC50 Porcine pancreas elastase): 3.3 µM
CC(C)C(NC(=O)[C@@H]1CCCN1C(=O)[C@@H](NC(=O)c1ccc(C(=O)N[C@@H](CCC(=O)O)C(=O)O)cc1)C(C)C)C(=O)C(F)(F)F (mixture of isomers) [Example 17, 3(RS)-[[4-[(1(S),3-Dicarboxypropyl)aminocarbonyl]-phenylcarbonyl]-L-valyl-L-prolyl]amino-1,1,1-trifluoro-4-methyl-2-oxopentane] | 1.1 µM | 3.4 µM | 
CC(C)C(NC(=O)[C@@H]1CCCN1C(=O)[C@@H](NC(=O)c1ccc(C(=O)NCc2ccc(N)cc2)cc1)C(C)C)C(=O)C(F)(F)F (mixture of isomers) [Example 18, 3(RS)-[[4-[(4-aminobenzyl)aminocarbonyl]phenylcarbonyl]-L-valyl-L-prolyl]amino-1,1,1-trifluoro-4-methyl-2-oxopentane] | 0.61 µM | 3.8 µM | 
CC(C)C(NC(=O)[C@@H]1CCCN1C(=O)[C@@H](NC(=O)Nc1ccc(C(=O)NCC(=O)OCc2ccccc2)cc1)C(C)C)C(=O)C(F)(F)F (mixture of isomers) [Example 22, 3(RS)-[[4-(Benzyloxycarbonylmethylaminocarbonyl)phenylaminocarbonyl]-L-valyl-L-prolyl]amino-1,1,1-trifluoro-2-oxo-4-methylpentane] | 0.68 µM | 4.9 µM | 
CC(C)C(NC(=O)[C@@H]1CCCN1C(=O)[C@@H](NC(=O)Nc1ccc(C(=O)NCC(=O)N(C)C)cc1)C(C)C)C(=O)C(F)(F)F (mixture of isomers) [Example 24, 3(RS)-[[4-(Dimethylaminocarbonylmethylaminocarbonyl)phenylaminocarbonyl]-L-valyl-L-prolyl]amino-1,1,1-trifluoro-2-oxo-4-methylpentane] | 1.4 µM | 3.8 µM | 
CC(C)C(NC(=O)[C@@H]1CCCN1C(=O)[C@@H](NC(=O)c1ccc(C(=O)NCCCC(=O)OCC(=O)c2ccccc2)cc1)C(C)C)C(=O)C(F)(F)F (mixture of isomers) [Example 3, 3(RS)-[[4-[(3-Benzoylmethoxycarbonyl)propylaminocarbonyl]phenylcarbonyl]-L-valyl-L-prolyl]amino-1,1,1-trifluoro-4-methyl-2-oxopentane] | 0.98 µM | 8.7 µM | 
CC(C)C(NC(=O)[C@@H]1CCCN1C(=O)[C@@H](NC(=O)c1ccc(C(=O)NN2CCOCC2)cc1)C(C)C)C(=O)C(F)(F)F (mixture of isomers) [Example 4, 3(RS)-[[4-[(4-Morpholino)aminocarbonyl]-phenylcarbonyl]-L-valyl-L-prolyl]amino-1,1,1-trifluoro-4-methyl-2-oxopentane] | 1.4 µM | 2.9 µM | 
CC(C)C(NC(=O)[C@@H]1CCCN1C(=O)[C@@H](NC(=O)c1ccc(C(=O)N[C@H](Cc2ccccc2)C(=O)OCc2ccccc2)cc1)C(C)C)C(=O)C(F)(F)F (mixture of isomers) [Example 8, 3(RS)-[[4-[[(1(R)-Benzyloxycarbonyl)-2-phenyl]ethylaminocarbonyl]phenylcarbonyl]-L-valyl-L-prolyl]amino-1,1,1-trifluro-4-methyl-2-oxopentane] | 0.87 µM | 16 µM | 
CC(C)C(NC(=O)[C@@H]1CCCN1C(=O)[C@@H](NC(=O)c1ccc(C(=O)N[C@@H](Cc2ccccc2)C(=O)OCc2ccccc2)cc1)C(C)C)C(=O)C(F)(F)F (mixture of isomers) [Example 9, 3(RS)-[[4-[[(1(S)-Benzyloxycarbonyl)-2-phenyl]ethylaminocarbonyl]phenylcarbonyl]-L-valyl-L-prolyl]amino-1,1,1-trifluoro-4-methyl-2-oxopentane] | 0.87 µM | 9.5 µM | 
CC(C)C(NC(=O)[C@@H]1CCCN1C(=O)[C@@H](NC(=O)c1ccc(C(=O)NCC(=O)O)cc1)C(C)C)C(=O)C(F)(F)F (single isomer, unassigned) [Example 15, 3(R or S)-[[4-(Carboxymethylaminocarbonyl)phenylcarbonyl]-L-valyl-L-prolyl]amino-1,1,1-trifluoro-2-oxo-4-methylpentane] | 0.61 µM |  | IC50 ([3]; IC50 Porcine pancreas elastase): 2 µM
CC(C)C(NC(=O)[C@@H]1CCCN1C(=O)[C@@H](NC(=O)c1ccc(C(=O)NCC(=O)O)cc1)C(C)C)C(=O)C(F)(F)F (single isomer, unassigned) [Example 16, 3(R or S)-[[4-(Carboxymethylaminocarbonyl)phenylcarbonyl]-L-valyl-L-prolyl]amino-1,1,1-trifluoro-2-oxo-4-methylpentane] | 7.1 µM |  | IC50 ([3]; IC50 Porcine pancreas elastase): 30 µM
